Some test systems named below: A549 NSCLC; ACHN renal; HL-60(TB) leukemia; HOP-92 NSCLC; MDA-MB-231 breast; NCI-H226 lung; NCI-H23 lung; SK-MEL-5 melanoma; TK-10 renal; UACC-257 melanoma.
Common to all, as to test: DTP human tumour cell line panel, 48 h

“And” between values parts separate entries of the source, which are not always exact repeats. Equal values may be shown once.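 Method: 48-hour compound exposure of cells in 96-well plates, five concentrations, linear interpolation of endpoints. At the GI50, growth is halved. TGI marks complete inhibition of growth.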 Bounds are passed on as bounds.

Consider `C=C1C(=O)OC2CC1C(OC(C)=O)C/C(C)=C/CC/C(C)=C\CCC2(C)O` (stereo not given), for which the TGI (as a rule, the concentration giving total growth inhibition) with A549 NSCLC is 33.2 µM and 51.1 µM; with ACHN renal it was 14.9 µM and 7.78 µM; in the experiment with HL-60(TB) leukemia, 2.64 µM; with HOP-92 NSCLC, 13.2 µM and 9.51 µM; in the experiment with MDA-MB-231 breast it was 22.5 µM and 22.2 µM; in the experiment with NCI-H226 lung, 12.1 µM and 34.2 µM. The concentration for total growth inhibition (TGI) in the experiment on NCI-H23 lung is 22.4 µM and 4.44 µM; with SK-MEL-5 melanoma, 24 µM and 10.8 µM; with TK-10 renal, 12.4 µM and 16.1 µM; in the experiment with UACC-257 melanoma, 18.7 µM and 12.7 µM. Besides, the GI50 – broadly, the concentration that inhibits growth by half – in the experiment on NCI-H23 lung is 7.77 µM and 1.84 µM; in the experiment with SK-MEL-5 melanoma it was 6.82 µM and 2.88 µM.

As for `CC(Cc1cccc2c1Nc1ccccc1S2)N(C)CCO` (stereo not given), the total growth inhibition concentration (TGI) in the experiment with A549 NSCLC, in the experiment with ACHN renal, in the experiment with HL-60(TB) leukemia, in the experiment with HOP-92 NSCLC, in the experiment on MDA-MB-231 breast and in the experiment on NCI-H226 lung was greater than 100 µM in each case. Also, the concentration for total growth inhibition (TGI) in the experiment on NCI-H23 lung, in the experiment with SK-MEL-5 melanoma, in the experiment on TK-10 renal and with UACC-257 melanoma was greater than 100 µM throughout.

`NCCCNc1nc2ccc(Cl)cc2c2c(=O)c3cc(F)ccc3sc12`: the GI50 in the experiment on A549 NSCLC is 1.77 µM; in the experiment with ACHN renal, 1.94 µM; in the experiment on HL-60(TB) leukemia it was 3.13 µM; in the experiment with HOP-92 NSCLC it was 1.58 µM; with MDA-MB-231 breast, 1.78 µM; with NCI-H226 lung, 8.58 µM. Further, the GI50 is 5.61 µM in the experiment with NCI-H23 lung, 13.6 µM with SK-MEL-5 melanoma, 3.08 µM in the experiment on TK-10 renal and 15.7 µM with UACC-257 melanoma. The TGI with A549 NSCLC is 3.89 µM; in the experiment with ACHN renal, 4 µM; with HL-60(TB) leukemia, 10.7 µM; with HOP-92 NSCLC it was 6.51 µM; with MDA-MB-231 breast it was 4.09 µM; in the experiment on NCI-H226 lung it was 25.1 µM. Further, the total growth inhibition concentration (TGI) is 21.2 µM in the experiment with NCI-H23 lung, 30.2 µM in the experiment with SK-MEL-5 melanoma, 11.1 µM with TK-10 renal and 35.3 µM in the experiment on UACC-257 melanoma.

On to `COC(=O)[C@@H](C)C[C@H](Cc1ccccc1)NC(=O)c1csc([C@@H](C[C@H](C(C)C)N(C)C(=O)C2(NC(=O)[C@H]3CCCCN3C)CCC2)OC(C)=O)n1`, for which the GI50 in the experiment with A549 NSCLC was 0.0564 µM and 0.0136 µM; in the experiment on ACHN renal, 0.0249 µM and 0.0193 µM; with HL-60(TB) leukemia, 0.00116 µM and < 0.0025 µM; with HOP-92 NSCLC, 0.000886 µM and 0.0025 µM; in the experiment on MDA-MB-231 breast, 0.00584 µM and 0.0025 µM; in the experiment with NCI-H226 lung it was 0.0547 µM. For the same molecule, the GI50 in the experiment on NCI-H23 lung is 0.00779 µM and 0.00892 µM; with SK-MEL-5 melanoma, 0.00401 µM and 0.0025 µM; in the experiment on UACC-257 melanoma it was greater than 25 µM. In addition, the TGI in the experiment with A549 NSCLC was greater than 25 µM; with ACHN renal it was greater than 25 µM; with HL-60(TB) leukemia, 0.00569 µM and < 0.0025 µM; in the experiment on MDA-MB-231 breast, 0.152 µM; with NCI-H226 lung, greater than 25 µM; in the experiment on NCI-H23 lung it was greater than 25 µM. Further, the TGI in the experiment with SK-MEL-5 melanoma is 0.146 µM and 0.125 µM; in the experiment with TK-10 renal, greater than 25 µM; in the experiment with UACC-257 melanoma, greater than 25 µM.

Consider `COc1cc2c(cc1OCCCCn1c(-c3cccs3)nc3ccccc31)N=C[C@@H]1CCCN1C2=O`, for which the GI50 with A549 NSCLC was 3.22 µM; in the experiment on ACHN renal, 2.81 µM; with HL-60(TB) leukemia, 5.18 µM; in the experiment with HOP-92 NSCLC, 1.33 µM; in the experiment with MDA-MB-231 breast it was 1.39 µM; with NCI-H226 lung, 2.13 µM. Moreover, the GI50 is 2.05 µM in the experiment on NCI-H23 lung, 1.09 µM with SK-MEL-5 melanoma, 2.09 µM in the experiment with TK-10 renal and 2.54 µM with UACC-257 melanoma. Further, the TGI in the experiment with A549 NSCLC was greater than 100 µM; in the experiment on ACHN renal it was 7.73 µM; in the experiment on HL-60(TB) leukemia, 53.4 µM; in the experiment with HOP-92 NSCLC, 5.46 µM; with MDA-MB-231 breast, 5.22 µM; with NCI-H226 lung, 6.51 µM. Moreover, the TGI in the experiment with NCI-H23 lung is 4.4 µM; in the experiment with SK-MEL-5 melanoma, 2.3 µM; in the experiment with TK-10 renal, 6.74 µM; with UACC-257 melanoma, 5.9 µM.

Regarding `C=C(CN1CCN(c2ccccc2C(F)(F)F)CC1)c1ccc(C(=O)Nc2ccccc2N)cc1`, the GI50 was 4.17 µM with A549 NSCLC; 7.19 µM in the experiment with ACHN renal; 0.037 µM in the experiment with HL-60(TB) leukemia; 1.85 µM in the experiment with HOP-92 NSCLC; 4.68 µM in the experiment on MDA-MB-231 breast; 7.79 µM with NCI-H226 lung. Moreover, the GI50 with NCI-H23 lung was 5.93 µM; with SK-MEL-5 melanoma it was 3 µM; with TK-10 renal, 4.63 µM; in the experiment on UACC-257 melanoma, 4.66 µM. Besides, the TGI with A549 NSCLC was 33.8 µM; in the experiment on ACHN renal it was greater than 100 µM; with HL-60(TB) leukemia, 0.756 µM; in the experiment with HOP-92 NSCLC it was 30.9 µM; in the experiment with MDA-MB-231 breast it was greater than 56.1 µM; with NCI-H226 lung it was 48.1 µM. The total growth inhibition concentration (TGI) in the experiment with NCI-H23 lung was greater than 100 µM; in the experiment on SK-MEL-5 melanoma, 9.83 µM; in the experiment on TK-10 renal, greater than 67.7 µM; in the experiment on UACC-257 melanoma, greater than 62.6 µM.

The values are drawn from PubChem BioAssay (NCI).
